Data from ChEMBL document CHEMBL1140602, “A simple, yet highly accurate, QSAR model captures the complement inhibitory activity of compstatin” (Bioorg Med Chem, 2007).
Positions of bridges follow the written chain, without caps; N, C: chain ends. Residues, ends and D or L forms follow the SMILES beside them.

Test: Inhibition of C3b activation relative to compstatin

logIC50 | SMILES
2.1 | CC[C@H](C)[C@H](NC(C)=O)C(=O)N[C@H]1CSSC[C@@H](C(=O)N[C@H](C(N)=O)[C@@H](C)O)NC(=O)[C@H](CCCNC(=N)N)NC(=O)[C@H](Cc2cnc[nH]2)NC(=O)[C@H](C)NC(=O)CNC(=O)[C@H](Cc2c[nH]c3cc(F)ccc23)NC(=O)[C@H](CC(=O)O)NC(=O)[C@H](CCC(N)=O)NC(=O)[C@H](Cc2c[nH]c3cc(F)ccc23)NC(=O)[C@H](C(C)C)NC1=O
2.08 | CC[C@H](C)[C@H](NC(C)=O)C(=O)N[C@H]1CSSC[C@@H](C(=O)N[C@H](C(N)=O)[C@@H](C)O)NC(=O)[C@H](CCCNC(=N)N)NC(=O)[C@H](Cc2cnc[nH]2)NC(=O)[C@H](C)NC(=O)CNC(=O)[C@H](Cc2c[nH]c3ccc(F)cc23)NC(=O)[C@H](CC(=O)O)NC(=O)[C@H](CCC(N)=O)NC(=O)[C@H](Cc2c[nH]c3ccccc23)NC(=O)[C@H](C(C)C)NC1=O
2.42 | CC[C@H](C)[C@H](NC(C)=O)C(=O)N[C@H]1CSSC[C@@H](C(=O)N[C@H](C(N)=O)[C@@H](C)O)NC(=O)[C@H](CCCNC(=N)N)NC(=O)[C@H](Cc2cnc[nH]2)NC(=O)[C@H](C)NC(=O)CNC(=O)[C@H](Cc2c[nH]c3ccc(F)cc23)NC(=O)[C@H](CC(=O)O)NC(=O)[C@H](CCC(N)=O)NC(=O)[C@H](Cc2cn(C)c3ccccc23)NC(=O)[C@H](C(C)C)NC1=O
0.211 | CC[C@H](C)[C@H](NC(C)=O)C(=O)N[C@H]1CSSC[C@@H](C(=O)N[C@H](C(N)=O)[C@@H](C)O)NC(=O)[C@H](CCCNC(=N)N)NC(=O)[C@H](Cc2cnc[nH]2)NC(=O)[C@H](C)NC(=O)CNC(=O)[C@H](Cc2c[nH]c3ccc(O)cc23)NC(=O)[C@H](CC(=O)O)NC(=O)[C@H](CCC(N)=O)NC(=O)[C@H](Cc2c[nH]c3ccc(O)cc23)NC(=O)[C@H](C(C)C)NC1=O
1.79 | CC[C@H](C)[C@H](NC(C)=O)C(=O)N[C@H]1CSSC[C@@H](C(=O)N[C@H](C(N)=O)[C@@H](C)O)NC(=O)[C@H](CCCNC(=N)N)NC(=O)[C@H](Cc2cnc[nH]2)NC(=O)[C@H](C)NC(=O)CNC(=O)[C@H](Cc2c[nH]c3ccccc23)NC(=O)[C@H](CC(=O)O)NC(=O)[C@H](CCC(N)=O)NC(=O)[C@H](Cc2c[nH]c3ccc(C)cc23)NC(=O)[C@H](C(C)C)NC1=O
1.65 | CC[C@H](C)[C@H](NC(C)=O)C(=O)N[C@H]1CSSC[C@@H](C(=O)N[C@H](C(N)=O)[C@@H](C)O)NC(=O)[C@H](CCCNC(=N)N)NC(=O)[C@H](Cc2cnc[nH]2)NC(=O)[C@H](C)NC(=O)CNC(=O)[C@H](Cc2c[nH]c3ccccc23)NC(=O)[C@H](CC(=O)O)NC(=O)[C@H](CCC(N)=O)NC(=O)[C@H](Cc2c[nH]c3ccccc23)NC(=O)[C@H](C(C)C)NC1=O
1.17 | CC[C@H](C)[C@H](NC(C)=O)C(=O)N[C@H]1CSSC[C@@H](C(=O)N[C@H](C(N)=O)[C@@H](C)O)NC(=O)[C@H](CCCNC(=N)N)NC(=O)[C@H](Cc2cnc[nH]2)NC(=O)[C@H](C)NC(=O)CNC(=O)[C@H](Cc2c[nH]c3ccccc23)NC(=O)[C@H](CC(=O)O)NC(=O)[C@H](CCC(N)=O)NC(=O)[C@H](Cc2ccc(O)cc2)NC(=O)[C@H](C(C)C)NC1=O
1.99 | CC[C@H](C)[C@H](NC(C)=O)C(=O)N[C@H]1CSSC[C@@H](C(=O)N[C@H](C(N)=O)[C@@H](C)O)NC(=O)[C@H](CCCNC(=N)N)NC(=O)[C@H](Cc2cnc[nH]2)NC(=O)[C@H](C)NC(=O)CNC(=O)[C@H](Cc2c[nH]c3ccccc23)NC(=O)[C@H](CC(=O)O)NC(=O)[C@H](CCC(N)=O)NC(=O)[C@H](Cc2cccc3ccccc23)NC(=O)[C@H](C(C)C)NC1=O
2.42 | CC[C@H](C)[C@H](NC(C)=O)C(=O)N[C@H]1CSSC[C@@H](C(=O)N[C@H](C(N)=O)[C@@H](C)O)NC(=O)[C@H](CCCNC(=N)N)NC(=O)[C@H](Cc2cnc[nH]2)NC(=O)[C@H](C)NC(=O)CNC(=O)[C@H](Cc2c[nH]c3ccccc23)NC(=O)[C@H](CC(=O)O)NC(=O)[C@H](CCC(N)=O)NC(=O)[C@H](Cc2cn(C)c3ccccc23)NC(=O)[C@H](C(C)C)NC1=O
1.83 | CC[C@H](C)[C@H](NC(C)=O)C(=O)N[C@H]1CSSC[C@@H](C(=O)N[C@H](C(N)=O)[C@@H](C)O)NC(=O)[C@H](CCCNC(=N)N)NC(=O)[C@H](Cc2cnc[nH]2)NC(=O)[C@H](C)NC(=O)CNC(=O)[C@H](Cc2c[nH]c3ccccc23)NC(=O)[C@H](CC(=O)O)NC(=O)[C@H](CCC(N)=O)NC(=O)[C@H](Cc2csc3ccccc23)NC(=O)[C@H](C(C)C)NC1=O
1.49 | CC[C@H](C)[C@H](NC(C)=O)C(=O)N[C@H]1CSSC[C@@H](C(=O)N[C@H](C(N)=O)[C@H](C)O)NC(=O)[C@H](CCCNC(=N)N)NC(=O)[C@H](Cc2cnc[nH]2)NC(=O)[C@H](C)NC(=O)CNC(=O)[C@H](Cc2c[nH]c3ccccc23)NC(=O)[C@H](CC(=O)O)NC(=O)[C@H](CCC(N)=O)NC(=O)[C@H](Cc2c[nH]c3ccc(F)cc23)NC(=O)[C@H](C(C)C)NC1=O
1.39 | CC[C@H](C)[C@H](NC(C)=O)C(=O)N[C@H]1CSSC[C@@H](C(=O)N[C@H](C(N)=O)[C@H](C)O)NC(=O)[C@H](CCCNC(=N)N)NC(=O)[C@H](Cc2cnc[nH]2)NC(=O)[C@H](Cc2cnc[nH]2)NC(=O)CNC(=O)[C@H](Cc2c[nH]c3ccccc23)NC(=O)[C@H](CC(=O)O)NC(=O)[C@H](CCC(N)=O)NC(=O)[C@H](Cc2c[nH]c3ccccc23)NC(=O)[C@H](C(C)C)NC1=O

The remaining lines, values behind:

SMILES | logIC50
CC[C@H](C)[C@H](N)C(=O)N[C@H]1CSSC[C@@H](C(=O)N[C@H](C(=O)O)[C@@H](C)O)NC(=O)[C@H](CCCNC(=N)N)NC(=O)[C@H](Cc2cnc[nH]2)NC(=O)[C@H](C)NC(=O)CNC(=O)[C@H](Cc2c[nH]c3ccccc23)NC(=O)[C@H](CC(=O)O)NC(=O)[C@H](CCC(N)=O)NC(=O)[C@H](C2Cc3ccccc3C2)NC(=O)[C@H](C(C)C)NC1=O | 1.55
CC[C@H](C)[C@H](N)C(=O)N[C@H]1CSSC[C@@H](C(=O)N[C@H](C(=O)O)[C@@H](C)O)NC(=O)[C@H](CCCNC(=N)N)NC(=O)[C@H](Cc2cnc[nH]2)NC(=O)[C@H](C)NC(=O)CNC(=O)[C@H](Cc2c[nH]c3ccccc23)NC(=O)[C@H](CC(=O)O)NC(=O)[C@H](CCC(N)=O)NC(=O)[C@H](Cc2ccc3ccccc3c2)NC(=O)[C@H](C(C)C)NC1=O | 1.58
CC[C@H](C)[C@H](N)C(=O)N[C@H]1CSSC[C@@H](C(=O)N[C@H](C(N)=O)[C@@H](C)O)NC(=O)[C@H](CCCNC(=N)N)NC(=O)[C@H](Cc2cnc[nH]2)NC(=O)[C@H](Cc2cnc[nH]2)NC(=O)CNC(=O)[C@H](Cc2c[nH]c3ccccc23)NC(=O)[C@H](CC(=O)O)NC(=O)[C@H](CCC(N)=O)NC(=O)[C@H](C(C)C)NC(=O)[C@H](C(C)C)NC1=O | 0
CC[C@H](C)[C@H](NC(C)=O)C(=O)N[C@H]1CSSC[C@@H](C(=O)N[C@H](C(=O)O)[C@@H](C)O)NC(=O)[C@H](CCCNC(=N)N)NC(=O)[C@H](Cc2cnc[nH]2)NC(=O)[C@H](C)NC(=O)CNC(=O)[C@H](Cc2c[nH]c3ccccc23)NC(=O)[C@H](CC(=O)O)NC(=O)[C@H](CCC(N)=O)NC(=O)[C@@H](Cc2csc3ccccc23)NC(=O)[C@H](C(C)C)NC1=O | 1.83
CC[C@H](C)[C@H](NC(C)=O)C(=O)N[C@H]1CSSC[C@@H](C(=O)N[C@H](C(=O)O)[C@@H](C)O)NC(=O)[C@H](CCCNC(=N)N)NC(=O)[C@H](Cc2cnc[nH]2)NC(=O)[C@H](C)NC(=O)CNC(=O)[C@H](Cc2c[nH]c3ccccc23)NC(=O)[C@H](CC(=O)O)NC(=O)[C@H](CCC(N)=O)NC(=O)[C@H](Cc2ccc(C(=O)c3ccccc3)cc2)NC(=O)[C@H](C(C)C)NC1=O | 1.69
CC[C@H](C)[C@H](NC(C)=O)C(=O)N[C@H]1CSSC[C@@H](C(=O)N[C@H](C(=O)O)[C@@H](C)O)NC(=O)[C@H](CCCNC(=N)N)NC(=O)[C@H](Cc2cnc[nH]2)NC(=O)[C@H](C)NC(=O)CNC(=O)[C@H](Cc2c[nH]c3ccccc23)NC(=O)[C@H](CC(=O)O)NC(=O)[C@H](CCC(N)=O)NC(=O)[C@H](Cc2cccc3ccccc23)NC(=O)[C@H](C(C)C)NC1=O | 1.47
CC[C@H](C)[C@H](NC(C)=O)C(=O)N[C@H]1CSSC[C@@H](C(=O)N[C@H](C(N)=O)[C@@H](C)O)NC(=O)[C@H](CCCNC(=N)N)NC(=O)[C@H](Cc2cnc[nH]2)NC(=O)[C@H](C)NC(=O)CNC(=O)[C@H](Cc2c[nH]c3ccccc23)NC(=O)[C@H](CC(=O)O)NC(=O)[C@H](CCC(N)=O)NC(=O)[C@H](C2Cc3ccccc3C2)NC(=O)[C@H](C(C)C)NC1=O | 1.58
CC[C@H](C)[C@H](NC(C)=O)C(=O)N[C@H]1CSSC[C@@H](C(=O)N[C@H](C(N)=O)[C@@H](C)O)NC(=O)[C@H](CCCNC(=N)N)NC(=O)[C@H](Cc2cnc[nH]2)NC(=O)[C@H](C)NC(=O)CNC(=O)[C@H](Cc2c[nH]c3ccccc23)NC(=O)[C@H](CC(=O)O)NC(=O)[C@H](CCC(N)=O)NC(=O)[C@H](CC2CCCCC2)NC(=O)[C@H](C(C)C)NC1=O | 0.056
CC[C@H](C)[C@H](NC(C)=O)C(=O)N[C@H]1CSSC[C@@H](C(=O)N[C@H](C(N)=O)[C@@H](C)O)NC(=O)[C@H](CCCNC(=N)N)NC(=O)[C@H](Cc2cnc[nH]2)NC(=O)[C@H](C)NC(=O)CNC(=O)[C@H](Cc2c[nH]c3ccccc23)NC(=O)[C@H](CC(=O)O)NC(=O)[C@H](CCC(N)=O)NC(=O)[C@H](Cc2ccc(C(=O)c3ccccc3)cc2)NC(=O)[C@H](C(C)C)NC1=O | 1.95
CC[C@H](C)[C@H](NC(C)=O)C(=O)N[C@H]1CSSC[C@@H](C(=O)N[C@H](C(N)=O)[C@@H](C)O)NC(=O)[C@H](CCCNC(=N)N)NC(=O)[C@H](Cc2cnc[nH]2)NC(=O)[C@H](C)NC(=O)CNC(=O)[C@H](Cc2c[nH]c3ncccc23)NC(=O)[C@H](CC(=O)O)NC(=O)[C@H](CCC(N)=O)NC(=O)[C@H](Cc2c[nH]c3ncccc23)NC(=O)[C@H](C(C)C)NC1=O | -0.358
CC[C@H](C)[C@H](NC(C)=O)C(=O)N[C@H]1CSSC[C@@H](C(=O)N[C@H](C(N)=O)[C@@H](C)O)NC(=O)[C@H](CCCNC(=N)N)NC(=O)[C@H](Cc2cnc[nH]2)NC(=O)[C@H](Cc2cnc[nH]2)NC(=O)CNC(=O)[C@H](Cc2c[nH]c3ccccc23)NC(=O)[C@H](CC(=O)O)NC(=O)[C@H](CCC(N)=O)NC(=O)[C@H](C(C)C)NC(=O)[C@H](C(C)C)NC1=O | 0.477
CC[C@H](C)[C@H](NC(C)=O)C(=O)N[C@H]1CSSC[C@@H](C(=O)N[C@H](C(N)=O)[C@@H](C)O)NC(=O)[C@H](CCCNC(=N)N)NC(=O)[C@H](Cc2cnc[nH]2)NC(=O)[C@H](Cc2cnc[nH]2)NC(=O)CNC(=O)[C@H](Cc2c[nH]c3ccccc23)NC(=O)[C@H](CC(=O)O)NC(=O)[C@H](CC(N)=O)NC(=O)[C@H](C(C)C)NC(=O)[C@H](CC(C)C)NC1=O (Ac-ICLVNDWGHHRCT-NH2; disulfide 2-12) | 0.16
